Results published in patent US6780992B2, “Heterocyclic compounds, process for their preparation and pharmaceutical compositions containing them and their use in the treatment of diabetes and related diseases” (Dr. Reddy's Laboratories Ltd., priority 1996, dated 2004).
Structures can show the parent of a compound that is named as a salt. Where two headings read alike, the source gives them in different places.

Test system: C57BL/KsJ-db/db mice
Test: blood sugar and triglycerides lowering in db/db mice, oral gavage daily for 6 days
Format: in vivo
Details: for inhibition in vivo at 100 mg/kg/day / inhibition in vivo at 30 mg/kg/day / inhibition in vivo at 10 mg/kg/day: Mus musculus, 144 h, 6 days treated; for inhibition in vivo at 100 mg/kg/day: dose 100 mg/kg/day oral gavage; for inhibition in vivo at 30 mg/kg/day: dose 30 mg/kg/day oral gavage; for inhibition in vivo at 10 mg/kg/day: dose 10 mg/kg/day oral gavage
From the text: Mutation in colonies of laboratory animals and different sensitivities to dietary regimens have made the development of animal models with non-insulin dependent diabetes associated with obesity and insulin resistance possible. Genetic models such as db/db and ob/ob (See Diabetes, (1982) 31(1): 1-6) in mice and fa/fa and zucker rats have been developed by the various laboratories for understanding the pathophysiology of disease and testing the efficacy of new antidiabetic compounds (Diabetes, (1983) 32: 830-838; Annu. Rep. Sankyo Res. Lab. (1994) 46: 1-57). The homozygous animals, C57 BL/KsJ-db/db mice developed by Jackson Laboratory, US, are obese, hyperglycemic, hyperinsulinemic and insulin resistant (J. Clin. Invest., (1990) 85: 962-967), whereas heterozygous are lean and normoglycemic. In db/db model, mouse progressively develops insulinopenia with age, a feature commonly observed in late stages of human type II diabetes when blood sugar levels are insufficiently controlled. The state of pancreas and its course vary according to the models. Since this model resembles that of type II diabetes mellitus, the compounds of the present invention were tested for blood sugar and triglycerides lowering activities.
Male C57BL/KsJ-db/db mice of 8 to 14 weeks age, having body weight range of 35 to 60 grams, procured from the Jackson Laboraotory, USA, were used in the experiment. The mice were provided with standard feed (National Institute of Nutrition, Hyderabad, India) and acidified water, ad libitum. The animals having more than 300 mg/dl blood sugar were used for testing. The number of animals in each group was 4.
The random blood sugar and triglyceride levels were measured by collecting blood (100 μl) through orbital sinus, using heparinised capillary in tubes containing EDTA which was centrifuged to obtain plasma. The plasma glucose and triglycerides levels were measured spectrometrically, by glucose oxidase and glycerol-3-PO4 oxidase/peroxidase enzyme (Dr. Reddy's Lab. Diagnostic Division Kits, Hyderabad, India) methods respectively. On 6th day the blood samples were collected one hour after administration of test compounds/vehicle for assessing the biological activity.
Test compounds were suspended on 0.25% carboxymethyl cellulose and administered to test group at a dose of 10 mg to 100 mg/kg through oral gavage daily for 6 days. The control group received vehicle (dose 10 ml/kg).
The blood sugar and triglycerides lowering activities of the test compound was calculated according to the formula: [formula]

[1] = read-out: Maximum reduction in blood glucose level (%)
[2] = read-out: Triglyceride lowering (%)

Row | Structure (SMILES) | inhibition in vivo at 100 mg/kg/day [1] | inhibition in vivo at 100 mg/kg/day [2] | inhibition in vivo at 30 mg/kg/day [1] | inhibition in vivo at 30 mg/kg/day [2] | further results
1 | CCc1nc(C)cc(=O)n1CCOc1ccc(/C=C2\SC(=O)NC2=O)cc1 [Example 3, 5-[4-[2-[2-Ethyl-4-methyl-6-oxo-1,6-dihydro-1-pyrimidinyl]ethoxy]phenylmethylene]thiazolidine-2,4-dione] | 67% | 12% | – | – | –
2 | CCc1c(C)nc(CC)n(CCOc2ccc(/C=C3\SC(=O)NC3=O)cc2)c1=O [Example 6, 5-[4-[2-[2,Diethyl-4-methyl-6-oxo-1,6-dihydro-1-pyrimidinyl]ethoxy]phenylmethylene]thiazolidine-2,4-dione] | 41% | 31% | – | – | –
3 | CCc1nc(-c2ccccc2)cc(=O)n1CCOc1ccc(/C=C2\SC(=O)NC2=O)cc1 [Example 7, 5-[4-[2-[2-Ethyl-4phenyl-6-oxo-1,6-dihydro-1-pyrimidinyl]ethoxy]phenylmethylene]thiazolidine-2,4-dione] | 66% | 35% | – | – | –
4 | Cc1nc2ccccc2c(=O)n1CCOc1ccc(/C=C2\SC(=O)NC2=O)cc1 [Example 9, 5-[4-[2-[2-Methyl-4-oxo-3,4-dihydro-3-quinazolinyl]ethoxy]phenylmethylene]thiazolidine-2,4-dione] | – | – | 46% | 35% | –
5 | Cc1nc2ncccc2c(=O)n1CCOc1ccc(/C=C2\SC(=O)NC2=O)cc1 [Example 11, 5-[4-[2-[8-Aza-2-methyl-4-oxo-3,4-dihydro-3-quinazolinyl]ethoxy]phenylmethylene]thiazolidine-2,4-dione] | – | – | 32% | 42% | –
6 | Cn1c(COc2ccc(/C=C3\SC(=O)NC3=O)cc2)nc2ccccc2c1=O [Example 12, 5-[4-[[3-Methyl-4-oxo-3,4-dihydro-2-quinazolinyl]methoxy]phenylmethylene]thiazolidine-2,4-dione] | 71% | 57% | – | – | –
7 | CCn1c(COc2ccc(/C=C3\SC(=O)NC3=O)cc2)nc2ccccc2c1=O [Example 13, 5-[4-[[3-Ethyl-4-oxo-3,4-dihydro-2-quinazolinyl]methoxy]phenylmethylene]thiazolidine-2,4-dione] | 52% | 57% | – | – | –
8 | CCCc1nc(C)cc(=O)n1CCOc1ccc(CC2SC(=O)NC2=O)cc1 (stereo not drawn) [Example 17, 5-[4-[2-[4-methyl-2-Propyl-6-oxo-1,6-dihydro-1-pyrimidinyl]ethoxy]phenylmethyl]thiazolidine-2,4-dione] | – | – | 65% | 45% | –
9 | CCc1nc(C)cc(=O)n1CCOc1ccc(CC2SC(=O)NC2=O)cc1 (stereo not drawn) [Example 19, 5-[4-[2-[2-Ethyl-4-methyl-6-oxo-1,6-dihydro-1-pyrimidinyl]ethoxy]phenylmethyl]thiazolidine-2,4-dione] | – | – | 73% | 70% | –
10 | CCc1nc(-c2ccccc2)cc(=O)n1CCOc1ccc(CC2SC(=O)NC2=O)cc1 (stereo not drawn) [Example 21, 5-[4-[2-[2-Ethyl-4phenyl-6-oxo-1,6-dihydro-1-pyrimidinyl]ethoxy]phenylmethyl]thiazolidine-2,4-dione] | – | – | 64% | 76% | –
11 | Cn1c(COc2ccc(CC3SC(=O)NC3=O)cc2)nc2ccccc2c1=O (stereo not drawn) [Example 22, 5-[4-[[3-Methyl-4-oxo-3,4-dihydro-2-quinazolinyl]methoxy]phenylmethyl]thiazolidine-2,4-dione] | – | – | 55% | 41% | –
12 | CCc1nc2ccccc2c(=O)n1CCOc1ccc(CC2SC(=O)NC2=O)cc1 (stereo not drawn) [Example 24, 5-[4-[2-[2-Ethyl-4-oxo-3,4-dihydro-3-quinazolinyl]ethoxy]phenylmethyl]thiazolidine-2,4-dione] | – | – | – | – | inhibition in vivo at 10 mg/kg/day [1]: 63%; inhibition in vivo at 10 mg/kg/day [2]: 17%
13 | Cn1c(COc2ccc(CC3SC(=O)NC3=O)cc2)nc2ccccc2c1=O (stereo not drawn) [Example 28, 5-[4-[[3-Methyl-4oxo-3,4-dihydro-2-quinazolinyl]methoxy]phenylmethyl]thiazolidine-2,4-dione sodium salt] | – | – | – | – | inhibition in vivo at 10 mg/kg/day [1]: 63%; inhibition in vivo at 10 mg/kg/day [2]: 57%
14 | Cc1c(C)c2c(c(C)c1O)CCC(C)(COc1ccc(CC3SC(=O)NC3=O)cc1)O2 (stereo not drawn) [Troglitazone, reference compound] | – | – | – | – | reduction in random blood sugar level (100 mg/kg daily dose, on 6th day): 28%
